We go through 26 molecules from the SangsterLogP compilation.

Each structure is given as a SMILES string.

A short description of the data set: method code SF-AS, from Mauleón, D.; Pujol, M.; Rosell, G. (1988). B-Adrenergic antagonists: N-alkyl and N-amidoethyl (arylalkoxy)propanolamines related to propranolol. Eur J Med Chem, 23, 421-426.
`CC(C)NCC(O)COCc1ccccc1` (stereo unspecified): the log partition coefficient (logP) (as a rule, the decadic logarithm of the partition coefficient of the neutral form, usually between octanol and water) is 1.62.
The figure for `CC(C)(C)NCC(O)COc1ccccc1` (stereo unspecified) is 1.5.
As for `CC(C)NCC(O)COCCc1ccccc1` (stereo unspecified), the logP is 1.76.
The result for `CC(C)C(=O)NCCNCC(O)COC1CCCc2ccccc21` (stereo unspecified) reads 1.99; that for `O=C(Cc1ccccc1)NCCNCC(O)COCCc1ccccc1` (stereo unspecified), 1.24.
`O=C(Cc1ccccc1)NCCNCC(O)COc1ccccc1` (stereo unspecified) gave a logP of 0.63.
The figure for `CC(CCCOCC(O)CNC(C)(C)C)c1ccccc1` (stereo unspecified) is 2.29.
The result for `O=C(Cc1ccccc1)NCCNCC(O)COCc1ccccc1` (stereo unspecified) reads 1.05; that for `CC(C)C(=O)NCCNCC(O)COCC=Cc1ccccc1` (stereo unspecified), 0.51.
The molecule `CC(C)(C)NCC(O)COCCOc1ccccc1` (stereo unspecified) displayed a logP of 2.35.
The figure for `CC(C)(C)NCC(O)COCc1ccccc1` (stereo unspecified) is 1.7; for `CC(C)C(=O)NCCNCC(O)COCc1ccccc1` (stereo unspecified) it is 0.63; for `O=C(Cc1ccccc1)NCCNCC(O)COCC=Cc1ccccc1` (stereo unspecified) it is 1.76.
The result for `CC(C)NCC(O)COCCOc1ccccc1` (stereo unspecified) reads 1.63.
The result for `CC(C)NCC(O)COCCCc1ccccc1` (stereo unspecified) reads 1.54; that for `CC(C)C(=O)NCCNCC(O)COCCc1ccccc1` (stereo unspecified), 0.95.
`O=C(Cc1ccccc1)NCCNCC(O)COCCOc1ccccc1` (stereo unspecified): the logP amounted to 0.75.
The result for `CC(C)C(=O)NCCNCC(O)COc1ccccc1` (stereo unspecified) reads 1.14.
The figure for `CC(C)(C)NCC(O)COCCc1ccccc1` (stereo unspecified) is 2.51; for `CC(C)NCC(O)COC/C=C/c1ccccc1` (stereo unspecified) it is 2.15.
For the molecule `CC(C)C(=O)NCCNCC(O)COCCCc1ccccc1` (stereo unspecified), the logP was 1.25.
Molecule `CC(C)C(=O)NCCNCC(O)COCCOc1ccccc1` (stereo unspecified) showed a logP of 0.48.
The result for `CC(C)(C)NCC(O)COC1CCCc2ccccc21` (stereo unspecified) reads 3.55.
`CC(C)NCC(O)COC1CCCc2ccccc21` (stereo unspecified) registered a logP of 3.42.
The figure for `O=C(Cc1ccccc1)NCCNCC(O)COC1CCCc2ccccc21` (stereo unspecified) is 1.68; for `CC(C)NCC(O)COCCCC(C)c1ccccc1` (stereo unspecified) it is 2.95.
